Measurements from US20080311037A1, “Compounds which bind PSMA and uses thereof” (priority 2005, published 2008).

Assays:
PSMA [1] = biological target: T1, PSMA (Homo sapiens, UniProt Q04609); experiment: Inhibition of 3H-ZJ24 binding to cell membranes; set-up: host or cells: PSMA positive membrane preparations
Description: (§1) Described herein are new compounds, which can activate RNase L in PSMA expressing cells. 2-5A was targeted for delivery to PSMA by linking it with a ligand to PSMA. We modified ZJ24, a low molecular weight ligand for PSMA, with 2-5A through a 4-(N-maleimidomethyl)cyclohexane-1-amidate linkage to generate RBI 1033. The inhibitory activity of RBI 1033 to the folate hydrolase activity of PSMA was measured. The PSMA positive membrane preparations were incubated with different concentrations of ZJ24, RBI 1033 and RBI 1032 (2-5A with linker only) together with the substrate methotrexate diglutamate (MTXGlu2) for 1 h. The amount of methotrexate and MTXGlu2 were then determined by HPLC. […] Binding studies were performed by incubating membranes with different concentrations of drugs in the presence of 12 nM of ^3H-ZJ24 for 30 min. […] These studies indicate that RBI 1033 has excellent binding properties to PSMA, which can enable it to serve as a vector for imaging or therapy.
Target sequence in this assay (Q04609 whole entry): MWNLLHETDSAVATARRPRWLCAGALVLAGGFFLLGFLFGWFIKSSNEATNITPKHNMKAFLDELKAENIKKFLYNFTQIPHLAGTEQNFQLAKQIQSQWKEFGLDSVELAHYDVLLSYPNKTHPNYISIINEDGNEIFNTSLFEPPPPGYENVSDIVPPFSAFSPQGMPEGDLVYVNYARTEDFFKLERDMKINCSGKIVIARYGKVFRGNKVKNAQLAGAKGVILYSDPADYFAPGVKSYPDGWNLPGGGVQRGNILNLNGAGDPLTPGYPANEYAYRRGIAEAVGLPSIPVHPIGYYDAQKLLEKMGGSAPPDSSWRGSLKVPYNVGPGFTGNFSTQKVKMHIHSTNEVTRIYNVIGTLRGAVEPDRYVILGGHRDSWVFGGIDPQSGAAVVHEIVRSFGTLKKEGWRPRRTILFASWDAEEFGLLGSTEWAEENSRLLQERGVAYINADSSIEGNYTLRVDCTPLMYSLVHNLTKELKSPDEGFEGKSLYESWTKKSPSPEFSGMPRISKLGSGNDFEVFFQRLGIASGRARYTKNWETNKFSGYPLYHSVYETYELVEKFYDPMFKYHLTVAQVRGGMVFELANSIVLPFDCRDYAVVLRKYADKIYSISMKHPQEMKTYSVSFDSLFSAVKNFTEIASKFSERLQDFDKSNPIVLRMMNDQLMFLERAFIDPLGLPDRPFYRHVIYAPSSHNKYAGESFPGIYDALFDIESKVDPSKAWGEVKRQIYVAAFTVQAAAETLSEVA

[2] = biological target: T2, active dimeric form of soluble recombinant hPSMA (Homo sapiens, UniProt Q04609); experiment: Competition binding assay with 3H-ZJ24 on recombinant PSMA; conditions: 0.5 μg recombinant PSMA, 12 nM 3H-ZJ24, 30 min, 37° C
T2 construct: Recombinant protein of the extracellular domain of PSMA can also exist in readily inter-convertible dimer-monomer forms
T2 sequence (Q04609 44-750 limits assumed): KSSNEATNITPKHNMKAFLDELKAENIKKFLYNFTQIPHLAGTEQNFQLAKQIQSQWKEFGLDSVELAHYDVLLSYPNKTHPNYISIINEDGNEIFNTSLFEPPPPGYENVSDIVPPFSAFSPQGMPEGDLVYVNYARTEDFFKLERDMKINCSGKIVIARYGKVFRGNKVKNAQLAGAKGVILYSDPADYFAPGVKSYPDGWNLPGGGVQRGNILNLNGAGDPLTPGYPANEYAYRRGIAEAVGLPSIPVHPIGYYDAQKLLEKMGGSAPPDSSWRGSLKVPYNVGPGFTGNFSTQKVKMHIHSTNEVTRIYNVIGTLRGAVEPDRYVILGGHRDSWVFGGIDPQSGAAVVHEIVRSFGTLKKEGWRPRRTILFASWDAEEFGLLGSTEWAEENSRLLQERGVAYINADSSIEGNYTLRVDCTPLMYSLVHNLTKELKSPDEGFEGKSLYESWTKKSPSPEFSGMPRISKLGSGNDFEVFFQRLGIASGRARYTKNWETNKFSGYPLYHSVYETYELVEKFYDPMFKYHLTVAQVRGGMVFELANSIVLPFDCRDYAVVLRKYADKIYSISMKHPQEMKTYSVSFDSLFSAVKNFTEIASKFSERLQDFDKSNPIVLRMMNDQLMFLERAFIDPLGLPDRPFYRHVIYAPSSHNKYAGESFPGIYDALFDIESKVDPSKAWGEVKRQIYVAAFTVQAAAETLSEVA
Description: Binding and activity of the disclosed 2-5A ligand towards the active dimeric form of soluble recombinant hPSMA was compared with methylated parent ligand Cys-C(O)-Glu ZJ24. The binding assay examines the ability of a novel compound to compete for binding with radio-labeled ZJ24. Different final concentrations of the inhibitor can be incubated in the presence of ZJ24 and the concentration required to inhibit 50% of binding is determined (the EC50). Briefly, 0.5 μg of recombinant PSMA was incubated with the ligand to be tested at different concentrations and 12 nM of ^3H-ZJ24 in a total volume of 100 μL for 30 min at 37° C. The mixture was centrifuged through a 50 kDa cut-off membrane. Finally, 4 mL of biodegradable counting cocktail Bio-Safe II was added, and radioactivity was counted.

PSMA [3] = biological target: T1, PSMA; experiment: Inhibition of folate hydrolase activity of PSMA, PSMA positive membrane preparations, substrate MTXGlu2, HPLC; assay type: biochemical; set-up: host or cells: PSMA positive membrane preparations
Description: as §1
Target sequence in this assay (Q04609 whole entry): as the sequence (Q04609 whole entry) above

PSMA [4] = biological target: T1, PSMA; experiment: PSMA activity assay, hydrolysis of polyglutamate substrate MTXGlu2; assay type: biochemical; set-up: Recombinant protein of the extracellular domain of PSMA can also exist in readily inter-convertible dimer-monomer forms; conditions: 5 ng recombinant PSMA, MTXGlu2 5 nMol, 37° C, 1 h; read-out: EC50 for inhibition of PSMA activity
Description: The activity assay determines the ability of hPSMA to cleave/hydrolyze a polyglutamte substrate under the presence of a ligand at different concentrations. Briefly, recombinant PSMA (5 ng) was incubated with ZJ24 or disclosed 2-5A ligand. After 30 min the polyglutamate substrate MTXGlu2 (5 nMol) was added and the mixture was incubated at 37° C. for 1 h. The reaction was stopped by the addition of 100 μL of 50 mM Na2HPO4. The amount of MTX formed was analyzed using a Thermo Hypersil PRISM RP column (50×4.6 mm, flow rate 1.0 mL/min) at 313 nm.
Target sequence in this assay (Q04609 44-750 limits assumed): as the sequence (Q04609 44-750 limits assumed) above

PSMA [5] = biological target: T1, PSMA; experiment: Binding of 3H-ZJ24 to recombinant hPSMA, Scatchard analysis; set-up: Recombinant protein of the extracellular domain of PSMA can also exist in readily inter-convertible dimer-monomer forms; conditions: 50 mM Tris buffer pH 7.5, 30 min, 37° C
Description: FIG. 2 is a graph showing binding to the monomeric and active dimeric form of soluble recombinant hPSMA of a ^3H (tritium) radiolabled (ZJ24), ^3H—(S)-2-[3-((R)-1-carboxy-2-methyl-sulfanyl-ethyl)-ureido]-pentanedioic acid or [^3H]MeCys-C(O)-Glu Parent PMSA ligand (6) maintains its specificity for PSMA by binding to recombinant hPSMA with a Kd of 2 nM based on Scatchard analysis. The binding assay was performed in 50 mM Tris buffer (pH 7.5). Briefly, 0.5 μg of recombinant PSMA was incubated with ^3H-ZJ24 in a total volume of 100 μL for 30 min at 37° C. The mixture was centrifuged through a 50K cutoff membrane. Then 50 μL of filtrate was added to 4 mL of cocktail and the radioactivity measured. […] After 60 min less than 10% of the compound found in kidney and plasma was degraded.
Target sequence in this assay (Q04609 44-750 limits assumed): as above

“(S)-2-[3-((R)-1-carboxy-2-methyl-sulfanyl-ethyl)-ureido]-pentanedioic acid [ZJ24]” gave an IC50 (PSMA [1]; 12 nM 3H-ZJ24, 30 min, read-out: IC50 for inhibition of binding of 3H-ZJ24 to the cell membrane) of 15.3 nM, an EC50 [2] of 15.3 nM and an IC50 (PSMA [3]; PSMA positive membrane preparations, MTXGlu2 substrate, 1 h, read-out: IC50 as folate hydrolase inhibitor) of 53.9 nM. It also gave an EC50 (PSMA [4]) of 56.7 nM.
`Nc1ncnc2c1ncn2[C@@H]1O[C@H](COP(O)(O)=S)[C@@H](O)[C@H]1OP(O)(=S)OC[C@H]1O[C@@H](n2cnc3c(N)ncnc32)[C@H](OP(O)(=S)OC[C@H]2O[C@@H](n3cnc4c(N)ncnc43)[C@H](OP(O)(=S)OCCCNC(=O)C3CCC(CN4C(=O)CC(SC[C@H](NC(=O)N[C@@H](CCC(=O)O)C(=O)O)C(=O)O)C4=O)CC3)[C@@H]2O)[C@@H]1O` (stereo partly shown) [RBI 1033] was tested, and the “times higher affinity to PSMA than ZJ24” value (PSMA [1]; compared to ZJ24) was “more than 10 times” and the “times more potent than ZJ24 as folate hydrolase inhibitor” value (PSMA [3]; compared to ZJ24) was “more than 10 times”.
`O=C(O)CCC(NC(=O)NC(CS)C(=O)O)C(=O)O` (stereo not shown) [Parent PMSA ligand (6)] was tested, and the Kd (PSMA [5]) was 2 nM.
